# Experiments:
# Conditions in all cases: 72 h
# Caco-2 [1] = experiment: cell viability relative to DMSO; higher = less toxic
# Calu-3 [2] = experiment: as above
# HepG2 [3] = experiment: as above
# U2OS [4] = experiment: as above
# Vero E6 [5] = experiment: as above
# Caco-2 [6] = experiment: relative viability EC50 (midpoint between 100% and the lowest measured viability); higher = less toxic
# Calu-3 [7] = experiment: as above
# U2OS [8] = experiment: as above
# Vero E6 [9] = experiment: as above
# Caco-2 [10] = experiment: drug sensitivity score (DSS) for viability; higher = more toxic; extreme values may be limits of the assay
# Calu-3 [11] = experiment: as above
# HepG2 [12] = experiment: as above
# U2OS [13] = experiment: as above
# Vero E6 [14] = experiment: as above
# HepG2 [15] = experiment: relative viability EC50 (midpoint between 100% and the lowest measured viability); higher = less toxic
SMILES,cell viability (Caco-2 [1]; 1 nM) [%],cell viability (Caco-2 [1]; 10 nM) [%],cell viability (Caco-2 [1]; 100 nM) [%],cell viability (Caco-2 [1]; 1000 nM) [%],cell viability (Caco-2 [1]; 10000 nM) [%],cell viability (Calu-3 [2]; 1 nM) [%],cell viability (Calu-3 [2]; 10 nM) [%],cell viability (Calu-3 [2]; 100 nM) [%],cell viability (Calu-3 [2]; 1000 nM) [%],cell viability (Calu-3 [2]; 10000 nM) [%],cell viability (HepG2 [3]; 1 nM) [%],cell viability (HepG2 [3]; 10 nM) [%],cell viability (HepG2 [3]; 100 nM) [%],cell viability (HepG2 [3]; 1000 nM) [%],cell viability (HepG2 [3]; 10000 nM) [%],cell viability (U2OS [4]; 1 nM) [%],cell viability (U2OS [4]; 10 nM) [%],cell viability (U2OS [4]; 100 nM) [%],cell viability (U2OS [4]; 1000 nM) [%],cell viability (U2OS [4]; 10000 nM) [%],cell viability (Vero E6 [5]; 1 nM) [%],cell viability (Vero E6 [5]; 10 nM) [%],cell viability (Vero E6 [5]; 100 nM) [%],cell viability (Vero E6 [5]; 1000 nM) [%],cell viability (Vero E6 [5]; 10000 nM) [%],relative viability EC50 (Caco-2 [6]) [µM],relative viability EC50 (Calu-3 [7]) [µM],relative viability EC50 (U2OS [8]) [µM],relative viability EC50 (Vero E6 [9]) [µM],drug sensitivity score (Caco-2 [10]),drug sensitivity score (Calu-3 [11]),drug sensitivity score (HepG2 [12]),drug sensitivity score (U2OS [13]),drug sensitivity score (Vero E6 [14]),relative viability EC50 (HepG2 [15]) [µM]
CCOc1ccn(-c2ccc(F)cc2)c(=O)c1C(=O)Nc1ccc(Oc2ccnc(N)c2Cl)c(F)c1,101,90.4,90.3,103,75.1,93.5,103,101,96.1,94,110,116,108,96.9,68.5,102,98.4,103,99.2,98,103,99.1,101,98.8,81.5,> 10,> 10,> 10,> 10,0.8,0,1.9,0,0.6,
CCc1cccc(CC)c1NC(=O)N1Cc2[nH]nc(NC(=O)c3ccc(N4CCN(C)CC4)cc3)c2C1,101,104,98.7,91.8,76.8,99.1,93.4,87.6,95,63,102,97.5,93.9,70.5,58.3,102,97.8,95.4,93.1,40,96.9,97.5,96.9,95.9,89.3,> 10,,2.22,> 10,1.7,2.6,5.9,4.4,0,
COc1ccc2[nH]c(C(=O)c3ccccc3)cc2c1,95,108,62.1,55.4,43.2,107,104,89.3,67.8,56.2,99.2,92.7,94.8,36.4,29.6,96.5,99.9,91.5,37.3,23.3,95.1,97.9,79.6,30.5,26.6,0.0765,,0.383,0.178,14.9,6.8,12.4,12.7,15.3,0.338
COc1ccc2c(c1)C=C1Cn3c-2c(C2CCCCC2)c2ccc(cc23)C(=O)NS(=O)(=O)N(C)CCOCCN(C)C1=O,93.7,91.1,99,102,94.2,,,,,,97.3,93.5,106,97,105,102,100,95.8,96.5,95.3,101,97.3,96.3,102,95.3,> 10,,> 10,> 10,0,,0,0,0,> 10
Cc1cccc(NC(=O)N[C@@H]2N=C(c3ccccc3)c3ccccc3N(C)C2=O)c1,105,106,100,110,97.2,,,,,,111,109,110,106,92.5,,,,,,111,102,109,101,93.6,> 10,,,> 10,0,,0,,0,> 10
C[C@@H](CN(C)C)CN1c2ccccc2Sc2ccccc21 (racemic) [alimemazine],112,100,97.8,108,80.4,97.5,94.8,101,105,83.4,105,101,104,104,70.9,103,95,103,97,94.3,100,98.1,99.4,88.9,77.2,> 10,> 10,> 10,> 10,0.3,0.2,1,0,1.9,
O=C1NC(=O)C(=Cc2ccc(-c3ccc(F)cc3)o2)S1 (stereo in doubt),99.2,97.9,104,95.3,90.4,,,,,,104,111,99.4,94,100,95.3,98.5,99.9,97.5,98.1,97.7,102,95.8,91.5,89.1,> 10,,> 10,> 10,0,,0,0,0.1,> 10
"Cl/C=C\C[N+]12CN3CN(CN(C3)C1)C2 [1-((Z)-3-chloroallyl)-1,3,5,7-tetraazaadamantan-1-ium]",96.3,97.9,91.5,97.4,95.8,,,,,,102,104,109,102,97.7,94.5,99.8,94.7,102,97.5,99.5,99,99.4,95.5,104,> 10,,> 10,> 10,0,,0,0,0,> 10
CC(C)(C)n1nc(-c2cccc3ccccc23)c2c(N)ncnc21 [1-naphthyl-PP1],104,93.1,98.6,101,86.1,91.6,104,98.4,100,73,115,115,95.6,105,82.8,100,96.4,109,94.4,75.6,107,99,103,110,78.6,> 10,,> 10,> 10,0.1,1.1,0.2,1.7,0.4,> 10
O=c1cc[nH]c(=S)[nH]1 [2-thiouracil],111,85.8,97.1,99,102,102,110,95.2,95.7,100,,,,,,98.5,96.4,99.7,97.5,98.6,108,98.6,99.5,108,93.8,> 10,> 10,> 10,> 10,0,0,,0,0,
N#Cc1c(N)nc(SCC(N)=O)c(C#N)c1-c1ccc(OCC2CC2)cc1 [BAY-60-6583],104,102,102,95.9,99.1,,,,,,102,98.1,101,102,92.6,106,100,101,98.7,99.4,99.4,94.7,93.3,96.6,93.7,> 10,,> 10,> 10,0,,0,0,0,> 10
Cc1cc(C)c(S(=O)(=O)n2cc(C)cc2C)c(C)c1 [HJC-0350],95.5,98.2,93.6,96.6,93.2,93.7,99.4,92.9,103,96.5,,,,,,97.4,98.2,102,106,93.4,97.5,99.5,98.6,95.5,96.2,> 10,> 10,> 10,> 10,0,0,,0,0,
Cc1noc(C)c1-c1cc(O)cc([C@@H](O)c2ccccc2)c1 [OXF-BD-02],100,92,99.3,92.5,80.3,98.9,95.2,99.8,96.8,70.8,107,104,98.6,101,54.4,97.2,94.2,99.7,86.9,59.3,102,103,94.6,76.9,17,> 10,,,1.48,1.3,1.8,2.3,3.9,8,
COc1cc(OCc2cccc(-c3ccccc3)c2C)cc(OC)c1CN1CCCC[C@H]1C(=O)O [PD1-PDL-inhibitor-1],104,94.5,94.4,96.3,102,98.2,99.1,98.1,102,102,,,,,,99.3,98.7,101,99,95.8,99.5,106,99.3,105,103,> 10,> 10,> 10,> 10,0,0,,0,0,
COc1cc2c(cc1F)C(c1ccccc1Cl)=Nc1c(n[nH]c1C)N2 [RG1530],94.8,90.8,89.1,81.4,76.1,111,100,98.7,90.5,52.8,98.5,98.5,93.9,63.2,77.6,101,95.8,99.5,85.8,68.6,101,99,99.6,92.5,82.1,> 10,,,> 10,3.5,4,7.5,3.1,1.1,
CN(C)c1ccc(/C=C2\C(=O)Nc3ccccc32)cc1 [SU4312],96.3,106,97.5,90.6,79.6,97.7,94.3,96.4,88.4,91.8,96,92.4,95.1,69.5,89.7,99.3,105,94.8,96.9,90,106,99.6,103,103,89.3,> 10,> 10,> 10,> 10,1.2,0,2,0,0,
